What all share (assay): NCI tumour cell line growth inhibition, 48 h
Experiment [1] deals with CAKI-1 renal.
Experiment [2] concerns HCT-116 colon.
The subject of experiment [3] is HCT-15 colon.
For experiment [4], the system named is HT29 colon.
Experiment [5] deals with MOLT-4 leukemia.
The subject of experiment [6] is OVCAR-3 ovarian.
Experiment [7] concerns PC-3 prostate.
Experiment [8] concerns RXF 393 renal.
Experiment [9] concerns SF-295 CNS.
Experiment [10] deals with SK-MEL-5 melanoma.
Experiment [11] deals with SNB-19 CNS.
Experiment [12] relates to SR leukemia.
Experiment [13] has as its system UO-31 renal.

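Step 1: Grow cells in 96-well plates. Step 2: Expose to compound for 48 hours at 5 concentrations. Step 3: Interpolate endpoints linearly; if unreached, use highest concentration. TGI is the concentration that stops growth completely.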 Where only a bound is given, the exact number is not on record here.

With `O=c1[nH]nc(Cc2ccccc2)n1/N=C/c1ccccc1Cl`, the TGI in experiment [1], in experiment [2], in [3], in experiment [4], in experiment [5] and in [6] was greater than 100 µM throughout. In addition, the TGI in experiment [7] is greater than 100 µM; in experiment [8], 48.5 µM; in [9], greater than 100 µM; in experiment [10], greater than 100 µM; in experiment [11], greater than 100 µM; in [12] it was greater than 100 µM. The same compound came in with a TGI in experiment [13] greater than 100 µM.
For `O=C(CCc1ccc(O)cc1)NCCc1cccc(OCc2ccccc2)c1`, the TGI was greater than 100 µM in experiment [1]; 50.6 µM in experiment [2]; greater than 100 µM in experiment [3]; 38.4 µM in experiment [4]; 48.4 µM in [5]; 35.1 µM in experiment [6]. Besides, the TGI in experiment [7] is 88.4 µM; in [8], greater than 100 µM; in experiment [9], greater than 100 µM; in [10], 32.7 µM; in experiment [11] it was greater than 100 µM; in [12], 36.5 µM. Moreover, the TGI in experiment [13] is 53.9 µM.
For `NC1=NN(c2ccccc2)C2(O)c3ccncc3C3=NN(c4ccccc4)C(=O)C132` (centres undefined), the TGI in experiment [1], in experiment [2], in experiment [3], in experiment [4], in experiment [5] and in experiment [6] was greater than 100 µM each time. The TGI in experiment [7], in experiment [8], in experiment [9], in experiment [10], in experiment [11] and in [12] was greater than 100 µM in each case. The TGI in [13] was greater than 100 µM.
For the compound `Fc1ccccc1-c1nn2c(C34CC5CC(CC(C5)C3)C4)nnc2s1`, the TGI in experiment [1], in [2], in experiment [3], in [4], in experiment [5] and in experiment [6] was greater than 100 µM throughout. In addition, the TGI in [7], in [8], in [9], in [10], in [11] and in [12] was greater than 100 µM throughout. This compound also had a TGI in experiment [13] greater than 100 µM.
Regarding `CN(C)C(=O)Nc1cc2c3c(c1)CCCN3CCC2`, the TGI in [1], in experiment [2], in experiment [3], in experiment [4], in experiment [5] and in [6] was greater than 10 µM in each case. The TGI in experiment [7], in experiment [8], in [9], in experiment [10], in experiment [11] and in experiment [12] was greater than 10 µM in each case. The TGI in [13] is greater than 10 µM.
With `Cc1occc1C(=S)Nc1ccc(Cl)c(/C=N/OC(C)C)c1`, the TGI in [1] was 40.9 µM; in experiment [2], greater than 51.7 µM; in experiment [3], 42.8 µM; in experiment [4], 45 µM; in [5], greater than 57.6 µM; in [6], 30.9 µM. Further, the TGI is 47.3 µM in [7]; 56.4 µM in experiment [8]; 41.9 µM in [9]; 41.4 µM in [10]; greater than 67.4 µM in experiment [11]; greater than 59.9 µM in experiment [12]. In experiment [13], this compound registered a TGI of 42.8 µM.
As for `O=C1c2ccccc2C2=Nc3ccncc3CN12`, the TGI in experiment [1], in [2], in experiment [3], in experiment [4], in [5] and in [6] was greater than 100 µM each time. Further, the TGI in [7], in [8], in [9], in experiment [10], in [11] and in [12] was greater than 100 µM throughout. Further, in experiment [13], the TGI is greater than 100 µM.
In the case of `COc1ccc(C(c2c[nH]c3ccc(Br)cc23)c2c[nH]c3ccc(Br)cc23)cc1`, the TGI is 1.64 µM in [1]; 0.349 µM in experiment [2]; 0.624 µM in experiment [3]; 1.03 µM in [4]; 0.478 µM in [5]; 0.52 µM in experiment [6]. Also, the TGI is 0.843 µM in experiment [7]; 0.578 µM in [8]; 1.17 µM in experiment [9]; 1.12 µM in [10]; 1.76 µM in experiment [11]; 0.418 µM in experiment [12]. For the same compound, the TGI in experiment [13] worked out at 1.69 µM.
